Results reported in patent US4100153A, “(D-Trp^5)-somatostatin and analogues thereof” (American Home Products Corporation, priority 1977, dated 1978).
Bridge positions count the residues as written; N and C are the ends. Square brackets hold non-standard residues; d marks the D form. Peptide text beside a SMILES is read from it.

Assays:
Assay type in all cases: in vivo
growth hormone secretion = assay: Effect on growth hormone secretion over time in rats treated with Nembutal, plasma GH by radioimmunoassay; details: for Growth Hormone: dose 1,000 μg/kg
Experimental: (D-Trp^5, D-Trp^8)-Somatostatin was also tested for its effect on growth hormone secretion in rats treated with Nembutal after 1, 2, 4, 5, 6, and 8 hours. Blood samples were obtained by cardiac puncture and plasma separated for radio immunoassay of GH concentration.

growth hormone = assay: Arginine-stimulated hormone secretion in Nembutal-treated rats, radioimmunoassay of growth hormone
Experimental: (§1) Albino male rats were administered Nembutal intraperitoneally at a dose of 50 milligrams per kilogram. Fifteen minutes later a subcutaneous injection of the test compound or physiological saline was administered. Ten minutes later 0.5 milliliters of arginine (300 milligrams per milliliter, pH 7.2) is injected into the heart. Five minutes after receipt of the arginine the rats are decapitated and blood is collected into trasylol-EDTA. An appropriate aliquot was assayed for growth hormone, insulin, and glucagon by radioimmunoassay.

glucagon = assay: Arginine-stimulated hormone secretion in Nembutal-treated rats, radioimmunoassay of glucagon
Experimental: as §1

insulin = assay: Arginine-stimulated hormone secretion in Nembutal-treated rats, radioimmunoassay of insulin
Experimental: as §1

C[C@H](N)C(=O)NCC(=O)N[C@H]1CSSC[C@@H](C(=O)O)NC(=O)[C@H](CO)NC(=O)[C@H]([C@@H](C)O)NC(=O)[C@H](Cc2ccccc2)NC(=O)[C@H]([C@@H](C)O)NC(=O)[C@H](CCCCN)NC(=O)[C@@H](Cc2c[nH]c3ccccc23)NC(=O)[C@H](Cc2ccccc2)NC(=O)[C@H](Cc2ccccc2)NC(=O)[C@@H](Cc2c[nH]c3ccccc23)NC(=O)[C@H](CCCCN)NC1=O [(D-Trp^5, D-Trp^8)-Somatostatin, L-alanylglycyl-L-cysteinyl-L-lysyl-D-tryptophyl-L-phenylalanyl-L-phenylalanyl-D-tryptophyl-L-lysyl-L-threonyl-L-phenylalanyl-L-threonyl-L-seryl-L-cysteine cyclic (3→14)-disulfide, triacetate] (H-AGCK[dW]FF[dW]KTFTSC-OH; disulfide 3-14)
Duration of inhibition of growth-hormone release (in words) (growth hormone secretion; 1,000 μg/kg, 1 to 8 hours): long-acting inhibition of growth-hormone release
Growth Hormone (growth hormone secretion; time 1 hr, control 61 ± 14): 5 ± 2 ng/mL
Growth Hormone (growth hormone secretion; time 2 hrs, control 227 ± 44): 16 ± 2 ng/mL
Growth Hormone (growth hormone secretion; time 4 hrs, control 84 ± 13): 32 ± 10 ng/mL
Growth Hormone (growth hormone secretion; time 5 hrs, control 73 ± 11): 16 ± 3 ng/mL
Growth Hormone (growth hormone secretion; time 6 hrs, control 156 ± 42): 22 ± 2 ng/mL
Growth Hormone (growth hormone secretion; time 8 hrs, control 55 ± 22): 31 ± 11 ng/mL
GH (growth hormone; dose 10 μg/kg subcutaneous, control 133 ± 32): 40 ± 6 ng/mL
GH (growth hormone; dose 100 μg/kg subcutaneous, control 133 ± 32): 25 ± 5 ng/mL
GH (growth hormone; dose 1,000 μg/kg subcutaneous, blood 15 min after dosing, 5 min after arginine, control 259 ± 29): 52 ± 5 ng/mL
Effect on secretion of growth hormone (in words) (growth hormone; dose of 10 or 100 μg/kg): effective agent for reducing secretion of growth hormone
Effect on release of growth hormone (in words) (growth hormone; higher dose (1 mg/kg)): inhibited release of growth hormone
Glucagon (glucagon; dose 10 μg/kg subcutaneous, control 44 ± 8, marked * not significant): 36 ± 5 pg/mL
Glucagon (glucagon; dose 100 μg/kg subcutaneous, control 44 ± 8, marked * not significant): 31 ± 5 pg/mL
Glucagon (glucagon; dose 1,000 μg/kg subcutaneous, control 46 ± 7): 17 ± 4 pg/mL
Effect on glucagon levels (in words) (glucagon; dose of 10 or 100 μg/kg): without materially affecting glucagon levels
Effect on release of glucagon (in words) (glucagon; higher dose (1 mg/kg)): inhibited release of growth hormone, insulin, and glucagon
Insulin (insulin; dose 10 μg/kg subcutaneous, control 348 ± 36): 183 ± 12 μU/ml
Insulin (insulin; dose 100 μg/kg subcutaneous, control 348 ± 36): 105 ± 9 μU/ml
Insulin (insulin; dose 1,000 μg/kg subcutaneous, control 314 ± 46): 33 ± 6 μU/ml
Effect on secretion of insulin (in words) (insulin; dose of 10 or 100 μg/kg): effective agent for reducing secretion of growth hormone and insulin
Effect on release of insulin (in words) (insulin; higher dose (1 mg/kg)): inhibited release of growth hormone, insulin
